Experimental data taken from patent US20250084097A1, “MACROCYCLIC AMIDE COMPOUNDS AND APPLICATION THEREOF” (Medshine Discovery Inc., priority 2021, published 2025).
Where a name gives a salt, the structure may show the parent alone. Read-outs that look alike come from different tables or passages of the source.

Legend:
[1] = tested on: PC-9 (EGFR del19/T790M/C797S); conditions: J. Med. Chem. 2019, 62, 22, 10272-10293; cited from earlier work
EGFR (L858R/T790M/C797S) = biological target: T1, EGFR (L858R/T790M/C797S) (Homo sapiens, UniProt P00533, C797S/L858R/T790M); test: Kinase inhibitory activity, 33P-ATP filtration-binding (Reaction Biology Corp.); format: biochemical; conditions: read-out: Kinase half-maximal inhibition concentration IC50 EGFR(L858R/T790M/C797S)
T1 construct: Reaction Biology Corp. (assay performed there)
T1 sequence (P00533 25-1210 T790M/C797S/L858R): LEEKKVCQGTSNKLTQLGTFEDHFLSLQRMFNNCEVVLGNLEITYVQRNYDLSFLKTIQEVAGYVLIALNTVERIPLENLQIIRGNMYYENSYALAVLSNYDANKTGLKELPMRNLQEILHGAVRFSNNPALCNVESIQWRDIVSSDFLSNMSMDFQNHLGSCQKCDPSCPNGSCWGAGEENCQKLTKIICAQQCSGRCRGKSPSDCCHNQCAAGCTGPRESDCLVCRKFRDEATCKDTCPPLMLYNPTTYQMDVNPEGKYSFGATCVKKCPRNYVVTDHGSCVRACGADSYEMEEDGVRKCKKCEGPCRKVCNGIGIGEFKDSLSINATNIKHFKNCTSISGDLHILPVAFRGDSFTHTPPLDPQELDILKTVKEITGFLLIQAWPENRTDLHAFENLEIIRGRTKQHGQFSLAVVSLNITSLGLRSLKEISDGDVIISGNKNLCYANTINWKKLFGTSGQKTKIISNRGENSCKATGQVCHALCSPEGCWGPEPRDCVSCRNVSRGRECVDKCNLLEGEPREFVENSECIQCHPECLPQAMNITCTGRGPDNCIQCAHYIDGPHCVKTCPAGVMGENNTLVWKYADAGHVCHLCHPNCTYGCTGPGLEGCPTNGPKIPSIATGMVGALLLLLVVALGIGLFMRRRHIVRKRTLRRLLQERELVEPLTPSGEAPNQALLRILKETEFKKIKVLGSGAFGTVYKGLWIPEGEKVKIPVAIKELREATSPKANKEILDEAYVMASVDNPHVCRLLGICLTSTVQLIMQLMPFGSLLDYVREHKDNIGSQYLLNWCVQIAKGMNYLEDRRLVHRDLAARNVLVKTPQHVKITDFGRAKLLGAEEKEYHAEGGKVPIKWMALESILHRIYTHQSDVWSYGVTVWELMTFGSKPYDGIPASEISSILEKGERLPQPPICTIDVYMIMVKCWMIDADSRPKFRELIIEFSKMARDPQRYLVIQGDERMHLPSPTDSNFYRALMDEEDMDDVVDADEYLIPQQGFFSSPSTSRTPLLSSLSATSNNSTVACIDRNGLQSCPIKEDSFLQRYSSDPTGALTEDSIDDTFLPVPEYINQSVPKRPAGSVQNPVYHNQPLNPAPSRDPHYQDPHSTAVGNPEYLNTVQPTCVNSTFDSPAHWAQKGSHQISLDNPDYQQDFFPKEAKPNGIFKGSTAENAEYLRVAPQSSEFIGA
Method: Compound assay for kinase inhibitory activity against EGFR (L858R/T790M/C797S), EGFR (del19-E746-A750/T790M/C797S), and EGFR (WT) was done at Reaction Biology Corp. In reaction buffer (20 mM Hepes (pH 7.5), 10 mM magnesium chloride (MgCl2), 1 mM ethylenebis(oxyethylenenitrilo)tetraacetic acid (EGTA), 0.02% polyethylene glycol monododecyl ether (Brij35), 0.02 mg/ml BSA, 0.1 mM sodium vanadate (Na3VO4), 2 mM dithiothreitol (DTT), 1% DMSO), a certain concentration of substances, coenzyme factors, kinases and test compounds (10 doses, 3-fold serial dilutions, 2% DMSO final concentration) were added in sequence, and mixed well. The mixture was incubated at room temperature for 20 minutes. A certain concentration of ^33P-ATP was added to the reaction mixture to initiate reaction, followed by incubation at room temperature for 120 minutes. Finally, the radioactivity of the reactants was detected by filtration-binding method. The final kinase activity was expressed as the ratio of the remaining kinase activity of the test sample to the kinase activity of the DMSO control group. The dose-response relationship curve was fitted and IC50 was calculated using GraphPad software.

[2] = biological target: Ba/F3-FL-EGFR (L858R/T790M/C797S) (Homo sapiens, UniProt P00533, T790M/C797S/L858R, cells depend on it); test: Cell proliferation inhibition, CellTiter-Glo; format: cell-based; conditions: 72 hours, read-out: Cell half-maximal inhibition concentration IC50 Ba/F3-FL-EGFR (L858R/T790M/C797S)
Chain of Ba/F3-FL-EGFR (L858R/T790M/C797S) (P00533 whole entry T790M/C797S/L858R): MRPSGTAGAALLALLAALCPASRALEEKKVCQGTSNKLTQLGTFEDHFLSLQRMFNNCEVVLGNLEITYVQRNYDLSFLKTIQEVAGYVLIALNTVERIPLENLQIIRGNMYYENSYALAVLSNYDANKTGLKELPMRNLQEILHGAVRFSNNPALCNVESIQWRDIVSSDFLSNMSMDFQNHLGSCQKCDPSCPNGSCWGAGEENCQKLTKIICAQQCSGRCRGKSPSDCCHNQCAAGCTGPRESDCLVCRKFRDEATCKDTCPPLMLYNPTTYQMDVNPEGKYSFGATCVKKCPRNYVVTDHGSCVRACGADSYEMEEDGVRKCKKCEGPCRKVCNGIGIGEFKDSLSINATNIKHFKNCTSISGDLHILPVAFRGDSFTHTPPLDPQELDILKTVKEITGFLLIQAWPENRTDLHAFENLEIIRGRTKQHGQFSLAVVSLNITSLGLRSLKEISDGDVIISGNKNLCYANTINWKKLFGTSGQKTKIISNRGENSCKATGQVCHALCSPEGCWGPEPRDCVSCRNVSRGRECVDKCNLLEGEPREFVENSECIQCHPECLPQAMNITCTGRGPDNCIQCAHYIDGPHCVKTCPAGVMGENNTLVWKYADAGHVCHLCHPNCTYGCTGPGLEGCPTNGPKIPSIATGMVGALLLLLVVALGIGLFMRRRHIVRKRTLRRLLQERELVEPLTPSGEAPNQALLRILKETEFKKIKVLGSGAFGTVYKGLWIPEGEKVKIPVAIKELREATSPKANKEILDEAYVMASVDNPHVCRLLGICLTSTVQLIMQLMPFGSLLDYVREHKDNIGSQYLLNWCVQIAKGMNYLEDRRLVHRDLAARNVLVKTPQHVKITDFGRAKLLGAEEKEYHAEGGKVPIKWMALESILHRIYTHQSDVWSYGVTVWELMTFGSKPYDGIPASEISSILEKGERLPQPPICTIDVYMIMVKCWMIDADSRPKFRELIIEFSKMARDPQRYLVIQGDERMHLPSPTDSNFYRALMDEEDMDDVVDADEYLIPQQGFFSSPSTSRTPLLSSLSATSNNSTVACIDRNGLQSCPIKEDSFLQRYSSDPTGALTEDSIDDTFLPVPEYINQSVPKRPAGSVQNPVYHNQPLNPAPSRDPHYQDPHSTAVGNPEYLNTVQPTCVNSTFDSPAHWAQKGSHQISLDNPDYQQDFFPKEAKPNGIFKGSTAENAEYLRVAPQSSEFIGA
Method: (§1) AdenosineTri-Phosphate (ATP) is an energy carrier shared by various life activities in nature, and is the smallest unit of energy storage and transfer. The CellTiter-Glo™ living cell assay kit uses luciferase as a detector, and luciferase requires the participation of ATP in the process of luminescence. CellTiter-Glo™ reagent is added to a cell culture medium, and the luminescence value is measured. The light signal is directly proportional to the amount of ATP in the system, and ATP is positively correlated with the number of living cells. Therefore, cell proliferation can be detected by detecting ATP content with the CellTiter-Glo kit. In this assay, the cell lines were Ba/F3-FL-EGFR (L858R/T790M/C797S), Ba/F3-FL-EGFR (WT), Ba/F3-FL-EGFR (L858R), Ba/F3-FL-EGFR (del19-S752-I759), Ba/F3-FL-EGFR (del19-E746-A750/T790M/C797S), Ba/F3-FL-EGFR (L858R/T790M), Ba/F3-FL-EGFR (del19-E746-A750/T790M), Ba/F3-TEL-EGFR (L858R/C797S), Ba/F3-FL-EGFR (del19-E746-A750/C797S) stably transfected cell lines.
(§2) The cell lines were cultured in an incubator at 37° C. and 5% CO2. The cells were periodically passaged, and cells in logarithmic growth phase were taken for plating.
(§3) a) DMSO was used to prepare a 10 mM solution of the compound to be tested, and then the compound to be tested was diluted to 0.3 or 1 mM with DMSO.
(§4) b) Preparation of 1000× compound storage plate (tube): DMSO was used to dilute by 3-fold gradient from the highest concentration to the lowest concentration, with a total of 9 concentrations.
(§5) c) Preparation of 20× compound working solution: 49 μL of cell culture medium was added to a flat-bottomed 96-well transparent drug plate, and 1 μL of compound was pipetted from the 1000× compound storage plate to the cell culture medium of the 96-well transparent drug plate. 1 μL of DMSO was added to the vehicle control. After adding compound or DMSO, the well content was mixed to uniform by aspiration and expelling with pipette.
(§6) a) Cells were stained with trypan blue and viable cells were counted. The cell viability rate was required to be above 90%.
(§7) b) 95 μL of cell suspension (2000 cells/well) was added to each well of the compound detection cell plate, and culture medium without cells (containing 0.1% DMSO) was added to the Min control well.
(§8) c) Dosing in the compound detection cell plate: 5 μL of 20× compound working solution was added to the cell culture plate. 5 μL of DMSO-cell culture mixture was added to the Max control. The final concentration of DMSO was 0.1%.
(§9) d) The culture plate was incubated in an incubator at 37° C., 5% CO2 for 72 hours.
(§10) Cell proliferation inhibition rate (Inhibition Rate) data were processed using the following formula:
Inhibition Rate (Inh %)=100−(RLUDrug−RLUMin)/(RLUMax−RLUMin)*100%.
The inhibition rates corresponding to different concentrations of compounds were calculated, and then GraphPad Prism software was used to draw the inhibition rate curve and the IC50 value was calculated.

Ba/F3-FL-EGFR (L858R) = Ba/F3-FL-EGFR (L858R) (Homo sapiens, UniProt P00533, L858R, cells depend on it); test: Cell proliferation inhibition, CellTiter-Glo; format: cell-based; conditions: 72 hours, read-out: Cell half-maximal inhibition concentration IC50 Ba/F3-FL-EGFR (L858R)
Chain of Ba/F3-FL-EGFR (L858R) (P00533 whole entry L858R): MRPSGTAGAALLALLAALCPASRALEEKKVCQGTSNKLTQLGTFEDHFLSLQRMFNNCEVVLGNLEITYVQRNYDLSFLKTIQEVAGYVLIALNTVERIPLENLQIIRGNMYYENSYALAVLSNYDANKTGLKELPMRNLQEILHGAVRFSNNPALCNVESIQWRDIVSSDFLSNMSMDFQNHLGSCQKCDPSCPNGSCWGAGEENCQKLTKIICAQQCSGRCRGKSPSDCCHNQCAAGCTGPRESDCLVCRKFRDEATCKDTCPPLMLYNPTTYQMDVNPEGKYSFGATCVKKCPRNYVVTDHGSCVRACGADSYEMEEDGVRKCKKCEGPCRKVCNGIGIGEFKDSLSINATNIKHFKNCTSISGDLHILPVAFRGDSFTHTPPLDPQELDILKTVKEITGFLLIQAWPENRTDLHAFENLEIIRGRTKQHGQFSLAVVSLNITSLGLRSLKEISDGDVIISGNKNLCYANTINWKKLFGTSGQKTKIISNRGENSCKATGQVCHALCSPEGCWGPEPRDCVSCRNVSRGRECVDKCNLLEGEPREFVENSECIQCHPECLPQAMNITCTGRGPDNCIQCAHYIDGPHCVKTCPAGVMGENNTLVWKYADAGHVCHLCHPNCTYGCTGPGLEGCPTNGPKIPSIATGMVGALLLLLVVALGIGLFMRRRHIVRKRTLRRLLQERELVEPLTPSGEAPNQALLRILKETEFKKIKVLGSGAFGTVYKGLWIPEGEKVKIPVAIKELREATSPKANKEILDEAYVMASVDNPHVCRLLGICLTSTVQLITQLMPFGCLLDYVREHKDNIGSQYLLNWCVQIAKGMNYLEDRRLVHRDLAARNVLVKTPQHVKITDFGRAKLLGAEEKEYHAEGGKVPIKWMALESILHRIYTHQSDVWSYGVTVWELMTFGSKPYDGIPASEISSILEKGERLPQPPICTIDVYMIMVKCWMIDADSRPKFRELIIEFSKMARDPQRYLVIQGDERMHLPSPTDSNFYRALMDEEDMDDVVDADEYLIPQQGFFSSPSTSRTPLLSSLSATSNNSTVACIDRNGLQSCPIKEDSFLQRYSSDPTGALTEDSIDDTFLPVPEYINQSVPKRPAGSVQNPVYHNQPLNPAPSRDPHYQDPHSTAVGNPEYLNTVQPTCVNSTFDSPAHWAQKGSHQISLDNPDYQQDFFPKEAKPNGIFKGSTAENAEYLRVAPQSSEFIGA
Method: as §1, §2, §3, §4, §5, §6, §7, §8, §9
(§11) The following steps were performed according to the instruction of Promega CellTiter-Glo luminescence cell viability detection kit (Promega-G7573). • a) The CellTiter-Glo buffer was thawed and allowed to stand to reach room temperature; • b) CellTiter-Glo substrate was allowed to stand to reach room temperature; • c) CellTiter-Glo buffer was added to CellTiter-Glo substrate in a bottle to dissolve the substrate to formulate CellTiter-Glo working solution; • d) The working solution was vortexed slowly for fully dissolution; • e) The cell culture plates were taken out and allowed to stand for 10 minutes to equilibrate to room temperature; • f) 50 μL (equal to half the volume of cell culture solution in each well) of Cell Titer-Glo working solution was added into each well. • g) The culture plates were shaken on an orbital shaker for 2 minutes to induce cell lysis; • h) The culture plates were left at room temperature for 10 minutes to stabilize the luminescence signal; • i) The luminous signal was detected on the PerkinElmer EnVision®2105 plate reader.
(§12) By PerkinElmer EnVision®2105 reading, the corresponding […] value RLU for each well was yielded.
as §10
(§13) Inhibition Rate (Inh %)=100−(RLUDrug−RLUMin)/(RLUMax−RLUMin)*100%. […]

Ba/F3-FL-EGFR (WT) = Ba/F3-FL-EGFR (WT) (Homo sapiens, UniProt P00533); test: Cell proliferation inhibition, CellTiter-Glo; format: cell-based; conditions: 72 hours, read-out: Cell half-maximal inhibition concentration IC50 Ba/F3-FL-EGFR (WT)
Method: as §1, §2, §3, §4, §5, §6, §7, §8, §9, §11, §12, §10, §13

[3] = biological target: Ba/F3-FL-EGFR (del19-E746-A750/T790M/C797S) (Homo sapiens, UniProt P00533, DEL746-750/T790M/C797S, cells depend on it); test: Cell proliferation inhibition, CellTiter-Glo; format: cell-based; conditions: 72 hours, read-out: Cell half-maximal inhibition concentration IC50 Ba/F3-FL-EGFR (del19-E746-A750/T790M/C797S)
Chain of Ba/F3-FL-EGFR (del19-E746-A750/T790M/C797S) (P00533 with tags, fused parts or gaps DEL746-750/T790M/C797S): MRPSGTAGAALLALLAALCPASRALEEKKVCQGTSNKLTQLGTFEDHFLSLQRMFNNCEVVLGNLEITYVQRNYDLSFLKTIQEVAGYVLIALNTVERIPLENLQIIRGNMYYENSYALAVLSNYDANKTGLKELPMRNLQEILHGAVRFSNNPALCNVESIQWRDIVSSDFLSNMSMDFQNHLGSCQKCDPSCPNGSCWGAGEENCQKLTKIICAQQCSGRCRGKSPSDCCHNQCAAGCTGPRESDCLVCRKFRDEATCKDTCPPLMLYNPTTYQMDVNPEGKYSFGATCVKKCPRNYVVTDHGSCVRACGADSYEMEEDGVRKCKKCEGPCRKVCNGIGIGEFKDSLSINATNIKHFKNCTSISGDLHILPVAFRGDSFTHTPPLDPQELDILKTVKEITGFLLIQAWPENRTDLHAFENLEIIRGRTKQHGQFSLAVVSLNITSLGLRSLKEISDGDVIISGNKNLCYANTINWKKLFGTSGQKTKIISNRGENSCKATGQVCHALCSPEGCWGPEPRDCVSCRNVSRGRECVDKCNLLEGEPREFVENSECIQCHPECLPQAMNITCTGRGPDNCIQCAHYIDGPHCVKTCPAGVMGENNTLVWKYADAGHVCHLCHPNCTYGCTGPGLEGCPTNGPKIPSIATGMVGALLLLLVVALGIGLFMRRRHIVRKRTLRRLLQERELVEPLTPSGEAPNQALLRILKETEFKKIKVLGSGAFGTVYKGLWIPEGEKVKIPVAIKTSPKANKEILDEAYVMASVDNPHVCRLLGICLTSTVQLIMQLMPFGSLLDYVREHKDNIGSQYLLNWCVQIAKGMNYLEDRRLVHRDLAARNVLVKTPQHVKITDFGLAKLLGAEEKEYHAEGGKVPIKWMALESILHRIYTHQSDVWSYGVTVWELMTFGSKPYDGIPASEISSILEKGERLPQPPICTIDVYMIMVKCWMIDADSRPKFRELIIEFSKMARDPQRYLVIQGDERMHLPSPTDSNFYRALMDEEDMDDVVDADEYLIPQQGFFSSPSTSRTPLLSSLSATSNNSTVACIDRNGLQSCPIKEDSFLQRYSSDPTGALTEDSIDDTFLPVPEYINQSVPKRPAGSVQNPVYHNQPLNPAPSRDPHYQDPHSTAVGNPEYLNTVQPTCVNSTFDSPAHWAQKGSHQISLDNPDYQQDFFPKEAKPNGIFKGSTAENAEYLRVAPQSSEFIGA
Method: as §1, §2, §3, §4, §5, §6, §7, §8, §9, §11, §12, §10, §13

[4] = biological target: Ba/F3-FL-EGFR (del19-S752-I759) (Homo sapiens, UniProt P00533, DEL752-759, cells depend on it); test: Cell proliferation inhibition, CellTiter-Glo; format: cell-based; conditions: 72 hours, read-out: Cell half-maximal inhibition concentration IC50 Ba/F3-FL-EGFR (del19-S752-I759)
Method: as §1, §2, §3, §4, §5, §6, §7, §8, §9, §11, §12, §10, §13

| GI50 [2] | Compound | also measured |
| --- | --- | --- |
|  | Cc1cc2cc(n1)-c1cnn(C)c1OCCC[C@@H](C)Cn1c(nc3ccc(CN4CCN(C)CC4)cc31)NC2=O [BI-4020] | Anti-tumor efficacy [1]: good anti-tumor efficacy |
|  | Cc1cc2cc(n1)-c1cnn(C)c1OCCC[C@@H](C)CN1/C(=N/C2=O)Nc2ccc(P(C)(C)=O)cc21 [WX-001 (trifluoroacetate)] | IC50 (EGFR (L858R/T790M/C797S); ATP 10 μM): 0.159 nM; IC50 (EGFR (L858R/T790M/C797S); ATP 100 μM): 1.17 nM |
|  | CCS(=O)(=O)c1ccc2c(c1)N1C[C@H](C)CCCOc3c(cnn3C)-c3cc(cc(C)n3)C(=O)/N=C/1N2 [WX-002 (formate)] | IC50 (EGFR (L858R/T790M/C797S); ATP 10 μM): 0.468 nM |
|  | CCP(=O)(CC)c1ccc2c(c1)N1C[C@H](C)CCCOc3c(cnn3C)-c3cc(cc(C)n3)C(=O)/N=C/1N2 [WX-004 (trifluoroacetate)] | IC50 (EGFR (L858R/T790M/C797S); ATP 100 μM): 1.75 nM |
| 7.2 nM | Cc1cc2cc(n1)-c1cnn(C)c1OCCC[C@@H](C)CN1/C(=N/C2=O)Nc2ccc(P(=O)(C(C)C)C(C)C)cc21 [WX-005 (trifluoroacetate)] | IC50 (EGFR (L858R/T790M/C797S); ATP 100 μM): 1.63 nM |
| 2.3 nM | Cc1cc2cc(n1)-c1cnn(C)c1OCCC[C@@H](C)CN1/C(=N/C2=O)Nc2ccc(N=S(C)(C)=O)cc21 [WX-006 (trifluoroacetate)] | IC50 (EGFR (L858R/T790M/C797S); ATP 100 μM): 0.831 nM |
| 4.4 nM | Cc1cc2cc(n1)-c1cnn(C)c1OCCC[C@@H](C)CN1/C(=N/C2=O)Nc2ccc(N=S3(=O)CCCCC3)cc21 [WX-011] |  |
| 7.3 nM | CCS(=O)(CC)=Nc1ccc2c(c1)N1C[C@H](C)CCCOc3c(cnn3C)-c3cc(cc(C)n3)C(=O)/N=C/1N2 [WX-012 (hydrochloride)] |  |
| 14.3 nM | Cc1cc2cc(n1)-c1cnn(C)c1OCCC[C@@H](C)CN1/C(=N/C2=O)Nc2ccc(N=S3(=O)CCNCC3)cc21 [WX-014] | GI50 (Ba/F3-FL-EGFR (L858R)): 53.9 nM; GI50 (Ba/F3-FL-EGFR (WT)): 421 nM; GI50 [3]: 2.9 nM; GI50 [4]: 38.1 nM |
| 10.6 nM | Cc1cc2cc(n1)-c1cnn(C)c1OCCC[C@@H](C)CN1/C(=N/C2=O)Nc2ccc(N=S3(=O)CCN(C)CC3)cc21 [WX-015] |  |
| 12.7 nM | Cc1cc2cc(n1)-c1cnn(C)c1OCCC[C@@H](C)CN1/C(=N/C2=O)Nc2ccc(N=S3(=O)CCN(C4CCN(C)CC4)CC3)cc21 [WX-022] |  |
| 2.7 nM | Cc1cc2cc(n1)-c1cnn(C)c1OCCC[C@@H](C)CN1/C(=N/C2=O)Nc2ccc(N=S3(=O)CCC4(CCN(C)CC4)CC3)cc21 [WX-023] |  |
| 1.4 nM | Cc1cc2cc(n1)-c1cnn(C)c1OCCC[C@@H](C)CN1/C(=N/C2=O)Nc2ccc(N=S3(=O)CC4CN(C)CC4C3)cc21 (some centres unmarked) [WX-024] |  |
| 5.7 nM | Cc1cc2cc(n1)-c1cnn(C)c1OCCC[C@@H](C)CN1/C(=N/C2=O)Nc2ccc(N=S3(=O)CC4(COC4)C3)cc21 [WX-025] |  |
| 11.6 nM | Cc1cc2cc(n1)-c1cnn(C)c1OCCC[C@@H](C)CN1/C(=N/C2=O)Nc2ccc(N=S3(=O)CCC(N4CCN(C)CC4)CC3)cc21 (some centres unmarked) [WX-026] |  |
| 3.3 nM | Cc1cc2cc(n1)-c1cnn(C)c1OCCC[C@@H](C)CN1/C(=N/C2=O)Nc2ccc(N=S3(=O)CCC4(CCOCC4)CC3)cc21 [WX-028] |  |
| 5.5 nM | Cc1cc2cc(n1)-c1cnn(C)c1OCCC[C@@H](C)CN1/C(=N/C2=O)Nc2ccc(N=S3(=O)CCC4(CC3)COC4)cc21 [WX-029] |  |
| 13 nM | Cc1cc2cc(n1)-c1cnn(C)c1OCCC[C@@H](C)CN1/C(=N/C2=O)Nc2ccc(N=S3(=O)CCN(C4COC4)CC3)cc21 [WX-030] |  |
| 2.1 nM | Cc1cc2cc(n1)-c1cnn(C)c1OCCC[C@@H](C)CN1/C(=N/C2=O)Nc2ccc(N=S3(=O)CCC4(CC3)CN(C)C4)cc21 [WX-031] |  |
